Values of other authors, collected in PubChem BioAssay AID1259409 (Chemical Carcinogenesis Research Information System (CCRIS), 2018).
Values joined by “and” are separate entries in the source; they are usually repeats but may differ in a detail not shown here. Equal entries are not always repeated.

Tested on: rodent chemically induced tumor inhibition, incidence and multiplicity
Assay: CCRIS tumor inhibitor studies

## CCN(CC)CCCCOc1ccc(/C(=C(/Cl)c2ccccc2)c2ccccc2)cc1
Carcinogen: N-METHYL-N-NITROSOUREA, 684-93-5, Dose [Inhibitor]: 0, 0.003 MG/KG BW 1/D FOR 90 D BEGINNING 1 WK POST CARCINOGEN DOSE (STUDY DURATION: 90 D), Route [Inhibitor]: GAVAGE, Species: RAT, Strain/Sex: SPRAGUE-DAWLEY/FEMALE, Target Tissue: Type of Lesion: MAMMARY GLAND: CARCINOMA, Dose [Carcinogen]: 50 MG/KG BW ONCE, Promoter: NONE USED
  tumour outcome (control, treated, inhibition, significance): 100%, 50%, 50%, not calculated
Carcinogen: N-METHYL-N-NITROSOUREA, 684-93-5, Dose [Inhibitor]: 0, 0.01 MG/KG BW 1/D FOR 90 D BEGINNING 1 WK POST CARCINOGEN DOSE (STUDY DURATION: 90 D), Route [Inhibitor]: GAVAGE, Species: RAT, Strain/Sex: SPRAGUE-DAWLEY/FEMALE, Target Tissue: Type of Lesion: MAMMARY GLAND: CARCINOMA, Dose [Carcinogen]: 50 MG/KG BW ONCE, Promoter: NONE USED
  tumour outcome (control, treated, inhibition, significance): 100%, 30%, 70%, not calculated
Carcinogen: N-METHYL-N-NITROSOUREA, 684-93-5, Dose [Inhibitor]: 0, 0.1 MG/KG BW 1/D FOR 85 D BEGINNING 1 WK POST CARCINOGEN DOSE (STUDY DURATION: 85 D), Route [Inhibitor]: GAVAGE, Species: RAT, Strain/Sex: SPRAGUE-DAWLEY/FEMALE, Target Tissue: Type of Lesion: MAMMARY GLAND: CARCINOMA, Dose [Carcinogen]: 50 MG/KG BW ONCE, Promoter: NONE USED
  tumour outcome (control, treated, inhibition, significance): 100%, 5%, 95%, not calculated
Carcinogen: N-METHYL-N-NITROSOUREA, 684-93-5, Dose [Inhibitor]: 0, 1 MG/KG BW 1/D FOR 85 D BEGINNING 1 WK POST CARCINOGEN DOSE (STUDY DURATION: 85 D), Route [Inhibitor]: GAVAGE, Species: RAT, Strain/Sex: SPRAGUE-DAWLEY/FEMALE, Target Tissue: Type of Lesion: MAMMARY GLAND: CARCINOMA, Dose [Carcinogen]: 50 MG/KG BW ONCE, Promoter: NONE USED
  tumour outcome (control, treated, inhibition, significance): 100%, 5%, 95%, not calculated

## CC(C)(C)c1cc(Cc2cc(C(C)(C)C)c(O)c(C(C)(C)C)c2)cc(C(C)(C)C)c1O
Carcinogen: BENZO[A]PYRENE, 50-32-8, Dose [Inhibitor]: 0.03 MMOL/G OF DIET DAILY STARTING 7 D BEFORE AND CONTINUING THROUGH 3 D AFTER CARCINOGEN TREATMENT FOLLOWED BY OBSERVAT, Route [Inhibitor]: ORAL, Species: MOUSE, Strain/Sex: ICR/FEMALE, Target Tissue: Type of Lesion: FORESTOMACH: NEOPLASM, Dose [Carcinogen]: 1 MG IN 0.2 ML CORN OIL 2/WK FOR 4 WK, Promoter: NONE USED
  tumour outcome (control, treated, inhibition, significance): 94%, 100%, -6%, not significant

## CC1(C)OC(=O)C=C[C@]2(C)[C@H]3CC[C@@]4(C)[C@H](c5ccoc5)OC(=O)[C@H]5O[C@]54[C@]3(C)C(=O)C[C@@H]12
Carcinogen: AZOXYMETHANE, 25843-45-2, Dose [Inhibitor]: 0, 0.05% IN DIET FOR 35 WK BEGINNING 1 WK POST CARCINOGEN LAST DOSE (STUDY DURATION: 38 WK), Route [Inhibitor]: ORAL, Species: RAT, Strain/Sex: F344/MALE, Target Tissue: Type of Lesion: COLON: ADENOCARCINOMA, Dose [Carcinogen]: 20 MG/KG BW 1/WK FOR 2 WK
  tumour outcome (control, treated, inhibition, significance): 18/25 (72%), 2/16 (13%), 82%, p=0.0002 and 18/25 (72%), 4/16 (25%), 65%, p=0.004

## Cc1cc2nc3c(=O)[nH]c(=O)nc-3n(C[C@H](O)[C@H](O)[C@H](O)CO)c2cc1C
Carcinogen: 7,12-DIMETHYLBENZ[A]ANTHRACENE, 57-97-6, Dose [Inhibitor]: 2 MG IN DRINKING WATER DAILY STARTING 4 WK BEFORE CARCINOGEN TREATMENT AND CONTINUING FOR DURATION OF THE STUDY (STUDY D, Route [Inhibitor]: ORAL, Species: MOUSE, Strain/Sex: 101/MALE, FEMALE, Target Tissue: Type of Lesion: SKIN: PAPILLOMA, Dose [Carcinogen]: 225 UG IN 0.15 ML ACETONE ONCE, Promoter: CROTON OIL, 8001-28-3
  tumour outcome (control, treated, inhibition, significance): 17/19 (89%), 19/19 (100%), -12%, not calculated
Carcinogen: BENZO[A]PYRENE, 50-32-8, Dose [Inhibitor]: 0.2% IN DIET DAILY STARTING 4 WK BEFORE START OF CARCINOGEN TREATMENT AND CONTINUING FOR DURATION OF STUDY (STUDY DURATI, Route [Inhibitor]: ORAL, Species: MOUSE, Strain/Sex: 101/MALE, FEMALE, Target Tissue: Type of Lesion: SKIN: TUMOR (BENIGN, MALIGNANT), Dose [Carcinogen]: 0.2 ML OF 0.025% SOLUTION IN ACETONE 2/WK FOR 23 WK STARTING 4 WK AFTER STAR OF AGENT TREATMENT, Promoter: NONE USED
  tumour outcome (control, treated, inhibition, significance): 21/30 (70%), 25/28 (89%), -27%, not calculated
Carcinogen: BENZO[A]PYRENE, 50-32-8, Dose [Inhibitor]: 0.25 MG 2/WK FOR 24 WK STARTING 4 WK BEFORE START OF CARCINOGEN TREATMENT AN D CONTINUING FOR DURATION OF STUDY (STUDY D, Route [Inhibitor]: SUBCUTANEOUS, Species: MOUSE, Strain/Sex: 101/MALE, FEMALE, Target Tissue: Type of Lesion: SKIN: MALIGNANT TUMOR, Dose [Carcinogen]: 0.2 ML OF 0.25% 2/WK FOR 20 WK, Promoter: NONE USED
  tumour outcome (control, treated, inhibition, significance): 12/18 (67%), 8/19 (42%), 37%, not calculated
Carcinogen: BENZO[A]PYRENE, 50-32-8, Dose [Inhibitor]: 0.6% IN DIET DAILY STARTING 4 WK BEFORE START OF CARCINOGEN TREATMENT AND CONTINUING FOR DURATION OF STUDY (STUDY DURATI, Route [Inhibitor]: ORAL, Species: MOUSE, Strain/Sex: 101/MALE, FEMALE, Target Tissue: Type of Lesion: SKIN: TUMOR (BENIGN, MALIGNANT), Dose [Carcinogen]: 0.2 ML OF 0.025% SOLUTION IN ACETONE 2/WK FOR 23 WK, Promoter: NONE USED
  tumour outcome (control, treated, inhibition, significance): 21/30 (70%), 32/37 (86%), -23%, not calculated
Carcinogen: BENZO[A]PYRENE, 50-32-8, Dose [Inhibitor]: 2.5 MG 2/WK FOR 24 WK STARTING 4 WK BEFORE START OF CARCINOGEN TREATMENT AND CONTINUING FOR DURATION OF STUDY (STUDY DUR, Route [Inhibitor]: SUBCUTANEOUS, Species: MOUSE, Strain/Sex: 101/MALE, FEMALE, Target Tissue: Type of Lesion: SKIN: PAPILLOMA, Dose [Carcinogen]: 0.2 ML OF 0.25% 2/WK FOR 20 WK, Promoter: NONE USED
  tumour outcome (control, treated, inhibition, significance): 13/18 (72%), 8/19 (42%), 42%, not calculated
Carcinogen: UV IRRADIATION, Dose [Inhibitor]: 15 MG/ML DRINKING WATER DAILY FOR DURATION OF STUDY (STUDY DURATION: 11 MO), Route [Inhibitor]: ORAL, Species: MOUSE, Strain/Sex: HR-HAIRLESS/MALE, Target Tissue: Type of Lesion: SKIN: SQUAMOUS CELL CARCINOMA, Dose [Carcinogen]: 5 MIN/D 6 D/WK FOR DURATION OF STUDY, Promoter: NONE USED
  tumour outcome (control, treated, inhibition, significance): 6/6 (100%), 6/6 (100%), 0%, not significant
Carcinogen: UV IRRADIATION, Dose [Inhibitor]: 15 MG/ML PROPYLENE GLYCOL DAILY FOR DURATION OF STUDY (STUDY DURATION: 11 MO), Route [Inhibitor]: DERMAL, Species: MOUSE, Strain/Sex: HR-HAIRLESS/MALE, Target Tissue: Type of Lesion: SKIN: SQUAMOUS CELL CARCINOMA, Dose [Carcinogen]: 5 MIN/D 6 D/WK FOR DURATION OF STUDY, Promoter: NONE USED
  tumour outcome (control, treated, inhibition, significance): 6/6 (100%), 7/7 (100%), 0%, not significant

## OCC(S)CS (stereo unspecified)
Carcinogen: TRANS-5-AMINO-3-[2-(5-NITRO-2-FURYL)VINYL]-1,2,4-OXADIAZOLE;SQL8506, 28754-68-9, Carcinogen: TRANS-5-AMINO-3-[2-(5-NITRO-2-FURYL)VINYL]-1,2,4-OXADIAZOLE;SQL8506, 28754-68-9, Dose [Inhibitor]: 80 MG/KG 18 HR BEFORE THE 1ST CARCINOGEN DOSE FOLLOWED BY ADDITIONAL INJECTIONS IMMEDIATELY BEFORE EACH DOSE OF CARCINOG, Route [Inhibitor]: INTRAPERITONEAL, Species: MOUSE, Strain/Sex: CD-1/FEMALE, Target Tissue: Type of Lesion: LYMPHOID TISSUE: NONTHYMIC LYMPHOMA, Dose [Carcinogen]: 1 G/KG 2/D FOR 5 D EVERY 4 WK FOR 3 COURSES OF TREATMENT, Promoter: NONE USED
  tumour outcome (control, treated, inhibition, significance): 8/137 (6%), 1/26 (4%), 33%, not calculated
Carcinogen: TRANS-5-AMINO-3-[2-(5-NITRO-2-FURYL)VINYL]-1,2,4-OXADIAZOLE;SQL8506, 28754-68-9, Carcinogen: TRANS-5-AMINO-3-[2-(5-NITRO-2-FURYL)VINYL]-1,2,4-OXADIAZOLE;SQL8506, 28754-68-9, Dose [Inhibitor]: 80 MG/KG 18 HR BEFORE THE 1ST CARCINOGEN DOSE FOLLOWED BY ADDITIONAL INJECTIONS IMMEDIATELY BEFORE EACH DOSE OF CARCINOG, Route [Inhibitor]: INTRAPERITONEAL, Species: MOUSE, Strain/Sex: CD-1/FEMALE, Target Tissue: Type of Lesion: LYMPHOID TISSUE: THYMIC LYMPHOMA, Dose [Carcinogen]: 1 G/KG 2/D FOR 5 D EVERY 4 WK FOR 3 COURSES OF TREATMENT, Promoter: NONE USED
  tumour outcome (control, treated, inhibition, significance): 22/137 (16%), 4/26 (15%), 6%, not calculated
Carcinogen: TRANS-5-AMINO-3-[2-(5-NITRO-2-FURYL)VINYL]-1,2,4-OXADIAZOLE;SQL8506, 28754-68-9, Carcinogen: TRANS-5-AMINO-3-[2-(5-NITRO-2-FURYL)VINYL]-1,2,4-OXADIAZOLE;SQL8506, 28754-68-9, Dose [Inhibitor]: 80 MG/KG 18 HR BEFORE THE 1ST CARCINOGEN DOSE FOLLOWED BY ADDITIONAL INJECTIONS IMMEDIATELY BEFORE EACH DOSE OF CARCINOG, Route [Inhibitor]: INTRAPERITONEAL, Species: MOUSE, Strain/Sex: CD-1/FEMALE, Target Tissue: Type of Lesion: STOMACH: SQUAMOUS CARCINOMA, Dose [Carcinogen]: 1 G/KG 2/D FOR 5 D EVERY 4 WK FOR 3 COURSES OF TREATMENT, Promoter: NONE USED
  tumour outcome (control, treated, inhibition, significance): 60/137 (44%), 14/26 (54%), -23%, not calculated
